Data as given in patent publication US20260250320A1, “LIPIDATED PEPTIDE INHIBITORS OF INTERLEUKIN-23 RECEPTOR” (Janssen Pharmaceutica NV, priority 2023, published 2026).
*1 amine or outer side, *2 acyl side, *3 side chain or, on linkers, in order; H or OH if unused. Where a SMILES comes first, the peptide text is derived from it. Bridges are numbered along the chain shown (N, C = ends). Side-chain parts run from the residue outwards. [ ]: non-standard residue; d: D form. The star is where a group is joined. PEG12 = NCCOCCOCCOCCOCCOCCOCCOCCOCCOCCOCCOCCOCCC(=O)O; Trp(7-Me,2,3-dihydro) = Cc1cccc2c1NCC2C[C@H](N)C(=O)O; NH(CH2CH2O)2CH2CH2NMe3+ = C[N+](C)(C)CCOCCOCCN*; Trp(7-Me) = Cc1cccc2c(C[C@H](N)C(=O)O)c[nH]c12; C20 diacid = O=C(O)CCCCCCCCCCCCCCCCCCC(=O)*; Hexanoyl(6-NMe3+) = C[N+](C)(C)CCCCCC(=O)*; C18 diacid = O=C(O)CCCCCCCCCCCCCCCCC(=O)*; Phe(4-Me) = Cc1ccc(C[C@H](N)C(=O)O)cc1; γGlu = O=C(O)[C@H](CCC(=O)[*:2])N[*:1]; 2Nal = N[C@@H](Cc1ccc2ccccc2c1)C(=O)O; AEF = NCCOc1ccc(C[C@H](N)C(=O)O)cc1; X2 = C[N+](C)(C)C[C@@H](CC(=O)O)N*; 2Pal = N[C@@H](Cc1ccccn1)C(=O)O; 3Pal = N[C@@H](Cc1cccnc1)C(=O)O; Pen = CC(C)(S)[C@H](N)C(=O)O; Suc = O=C(CCC(=O)[*:2])[*:1]; Thp = NC1(C(=O)O)CCOCC1; X1 = C[N+](C)(C)CCCCC*; AEEA = NCCOCCOCC(=O)O; Sar = CNCC(=O)O

Experiments:
IL-23R = target: T1, IL-23R (Homo sapiens, UniProt Q5VWK5); test: IL23R Reporter Assay; type: cell-based; conditions: HEK293 cells containing IL-23R, IL-12Rβ1 and STAT-inducible firefly luciferase reporter; 10 ng/mL IL-23 (EC90); 5 h
T1 construct: HEK293 cells containing IL-23R, IL-12Rβ1 and a firefly luciferase reporter gene driven by a STAT-inducible promoter (Promega); host or cells: HEK293
T1 sequence (Q5VWK5 24-629): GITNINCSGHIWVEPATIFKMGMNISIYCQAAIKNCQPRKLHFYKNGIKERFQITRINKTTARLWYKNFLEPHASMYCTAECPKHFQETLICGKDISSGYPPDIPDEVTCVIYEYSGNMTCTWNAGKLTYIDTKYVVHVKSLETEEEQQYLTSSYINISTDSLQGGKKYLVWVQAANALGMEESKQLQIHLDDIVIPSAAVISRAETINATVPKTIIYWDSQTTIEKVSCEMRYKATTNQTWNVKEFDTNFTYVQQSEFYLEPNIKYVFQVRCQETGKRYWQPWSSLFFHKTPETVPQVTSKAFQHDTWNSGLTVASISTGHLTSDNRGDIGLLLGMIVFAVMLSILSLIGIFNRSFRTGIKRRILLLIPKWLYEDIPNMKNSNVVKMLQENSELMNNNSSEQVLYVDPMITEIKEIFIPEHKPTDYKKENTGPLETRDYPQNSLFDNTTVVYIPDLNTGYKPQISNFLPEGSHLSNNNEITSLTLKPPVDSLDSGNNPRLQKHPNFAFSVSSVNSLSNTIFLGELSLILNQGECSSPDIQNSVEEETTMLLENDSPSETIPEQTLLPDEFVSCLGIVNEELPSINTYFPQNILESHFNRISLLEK
Method in brief: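 HEK293 cells carrying IL-23R, IL-12Rβ1 and a STAT-driven firefly luciferase reporter (4000 cells/well) received compound, then 10 ng/mL IL-23 solution (EC90), and were incubated for 5 h at 37° C. BioGlo luminescence was normalised to IL-23 alone (0%) and 30 μM control inhibitor (100%). IC50 came from a 4-parameter Hill fit.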

[1] = system: IL-23-stimulated phosphorylated STAT3 in peripheral blood mononuclear cells (PBMCs); test: PBMC pSTAT3 Assay; type: cell-based; conditions: PBMCs from healthy donors; 30 min preincubation with peptide; IL-23 5 ng/mL for 30 min; phospho-STAT3 by MSD
Method in brief: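 Healthy-donor PBMCs expanded 4 days on anti-CD3 with 100 ng/mL IL-1β, starved ~4 h in RPMI-0.1% BSA, preincubated 30 min with peptide, then stimulated 30 min at 37 °C with 5 ng/mL IL-23. Lysate pSTAT3 measured by MSD phospho-STAT panel; IC50 derived.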

Row | SMILES | IC50 (IL-23R) [nM] | IC50 [1] [nM]
1 | CC(=O)NCCCC[C@@H]1NC(=O)[C@H](Cc2c[nH]c3c(C)cccc23)NC(=O)[C@H]([C@@H](C)O)NC(=O)[C@H](CC(N)=O)NC(=O)[C@@H](NC(=O)[C@@H](CCCNC(=N)N)NC(=O)CCC(=O)N[C@H](CC(=O)O)C[N+](C)(C)C)C(C)(C)SSC(C)(C)[C@@H](C(=O)N[C@@H](Cc2ccc(OCCN)cc2)C(=O)N[C@@H](Cc2ccc3ccccc3c2)C(=O)NC2(C(=O)N[C@@H](CCCCNC(=O)COCCOCCNC(=O)COCCOCCNC(=O)CC[C@H](NC(=O)CCCCCCCCCCCCCCCCC(=O)O)C(=O)O)C(=O)N[C@@H](CC(N)=O)C(=O)N[C@@H](Cc3ccccn3)C(=O)N(C)CC(N)=O)CCOCC2)NC1=O [compound 49, succiniccarn-r-Pen(3)-N-T-7MeW-K(Ac)-Pen(3)-AEF-2Nal-THP-K(PEG2PEG2gEC18OH)-N-3Pya-Sar-CONH2] ({X2-Suc}-[dR][Pen]NT[Trp(7-Me)]K(Ac)[Pen][AEF][2Nal][Thp]K([AEEA-AEEA-γGlu-C18 diacid])N[2Pal][Sar]-NH2; disulfide 2-7) | 50 to 500 | < 0.5
2 | CC(=O)NCCCC[C@@H]1NC(=O)[C@H](Cc2c[nH]c3c(C)cccc23)NC(=O)[C@H]([C@@H](C)O)NC(=O)[C@H](CC(N)=O)NC(=O)[C@@H](NC(C)=O)C(C)(C)SSC(C)(C)[C@@H](C(=O)N[C@@H](Cc2ccc(OCCN)cc2)C(=O)N[C@@H](Cc2ccc3ccccc3c2)C(=O)NC2(C(=O)N[C@@H](CCCCNC(C)=O)C(=O)N[C@@H](CC(N)=O)C(=O)N[C@@H](Cc3cccnc3)C(=O)N(C)CC(=O)N[C@@H](CCCCNC(=O)CCOCCOCCOCCOCCOCCOCCOCCOCCOCCOCCOCCOCCNC(=O)CC[C@H](NC(=O)CCCCCCCCCCCCCCCCCCC(=O)O)C(=O)O)C(N)=O)CCOCC2)NC1=O [compound 101, MeCO-Pen(3)-N-T-7MeW-K(Ac)-Pen(3)-AEF-2Nal-THP-K(Ac)-N-3Pya-Sar-K(PEG12gEC20OH)-CONH2] | < 50 | < 0.5
3 | CC(=O)NCCCC[C@@H]1NC(=O)[C@H](CC2CNc3c(C)cccc32)NC(=O)[C@H]([C@@H](C)O)NC(=O)[C@H](CC(N)=O)NC(=O)[C@@H](NC(C)=O)C(C)(C)SSC(C)(C)[C@@H](C(=O)N[C@@H](Cc2ccc(C)cc2)C(=O)N[C@@H](Cc2ccc3ccccc3c2)C(=O)NC2(C(=O)N[C@@H](CCCCNC(=O)CCOCCOCCOCCOCCOCCOCCOCCOCCOCCOCCOCCOCCNC(=O)CC[C@H](NC(=O)CCCCCCCCCCCCCCCCCCC(=O)O)C(=O)O)C(=O)N[C@@H](CC(N)=O)C(=O)N[C@@H](Cc3cccnc3)C(=O)N(C)CC(N)=O)CCOCC2)NC1=O (stereo partly drawn) [compound 162, MeCO-Pen(3)-N-T-7MeW-K(Ac)-Pen(3)-AEF-2Nal-THP-K(PEG12gEC20OH)-N-3Pya-Sar-CONH2] (Ac-[Pen]NT[Trp(7-Me,2,3-dihydro)]K(Ac)[Pen][Phe(4-Me)][2Nal][Thp]K([PEG12-γGlu-C20 diacid])N[3Pal][Sar]-NH2; disulfide 1-6) | 50 to 500 | < 0.5
4 | CC(=O)NCCCC[C@@H]1NC(=O)[C@H](Cc2c[nH]c3c(C)cccc23)NC(=O)[C@H]([C@@H](C)O)NC(=O)[C@H](CC(N)=O)NC(=O)[C@@H](NC(=O)[C@@H](CCCNC(=N)N)NC(=O)CCCCC[N+](C)(C)C)C(C)(C)SSC(C)(C)[C@@H](C(=O)N[C@@H](Cc2ccc(OCCN)cc2)C(=O)N[C@@H](Cc2ccc3ccccc3c2)C(=O)NC2(C(=O)N[C@@H](CCC(=O)O)C(=O)N[C@@H](CC(N)=O)C(=O)N[C@@H](Cc3cccnc3)C(=O)N(C)CC(=O)N[C@@H](CCCCNC(=O)COCCOCCNC(=O)COCCOCCNC(=O)CC[C@H](NC(=O)CCCCCCCCCCCCCCCCC(=O)O)C(=O)O)C(N)=O)CCOCC2)NC1=O [compound 81, 5cpaCO-r-Pen(3)-N-T-7MeW-K(Ac)-Pen(3)-AEF-2Nal-THP-E-N-3Pya-Sar-K(PEG2PEG2gEC18OH)-CONH2] ({Hexanoyl(6-NMe3+)}-[dR][Pen]NT[Trp(7-Me)]K(Ac)[Pen][AEF][2Nal][Thp]EN[3Pal][Sar]K([AEEA-AEEA-γGlu-C18 diacid])-NH2; disulfide 2-7) | 50 to 500 | < 0.5
5 | CC(=O)NCCCC[C@@H]1NC(=O)[C@H](Cc2c[nH]c3c(C)cccc23)NC(=O)[C@H]([C@@H](C)O)NC(=O)[C@H](CC(N)=O)NC(=O)[C@@H](NC(=O)[C@@H](CCCNC(=N)N)NC(=O)COCCOCCNC(=O)COCCOCCNC(=O)CC[C@H](NC(=O)CCCCCCCCCCCCCCCCC(=O)O)C(=O)O)C(C)(C)SSC(C)(C)[C@@H](C(=O)N[C@@H](Cc2ccc(OCCN)cc2)C(=O)N[C@@H](Cc2ccc3ccccc3c2)C(=O)NC2(C(=O)N[C@@H](CCC(=O)O)C(=O)N[C@@H](CC(N)=O)C(=O)N[C@@H](Cc3cccnc3)C(=O)N(C)CC(=O)NCCOCCOCC[N+](C)(C)C)CCOCC2)NC1=O [compound 67, HOC18gEPEG2PEG2CO-r-Pen(3)-N-T-7MeW-K(Ac)-Pen(3)-AEF-2Nal-THP-E-N-3Pya-Sar-CONH(PEG3a)] ({C18 diacid-γGlu-AEEA-AEEA}-[dR][Pen]NT[Trp(7-Me)]K(Ac)[Pen][AEF][2Nal][Thp]EN[3Pal][Sar]-{NH(CH2CH2O)2CH2CH2NMe3+}; disulfide 2-7) | 50 to 500 | 0.5 to 5
6 | CC(=O)N(C)CCCC[C@H](CC(=O)C1(NC(=O)[C@H](Cc2ccc3ccccc3c2)NC(=O)[C@H](Cc2ccc(OCCNC(=O)C[N+](C)(C)CCNC(=O)CCOCCOCCOCCOCCOCCOCCOCCOCCOCCOCCOCCOCCNC(=O)CC[C@H](NC(=O)CCCCCCCCCCCCCCCCCCC(=O)O)C(=O)O)cc2)NC(=O)[C@H]2NC(=O)[C@H](CCCCN(C)C(C)=O)NC(=O)[C@H](Cc3c[nH]c4c(C)cccc34)NC(=O)[C@H]([C@@H](C)O)NC(=O)[C@H](CC(=O)N(C)C)NC(=O)[C@@H](NC(=O)CCOCCOCC[N+](C)(C)C)C(C)(C)SSC2(C)C)CCCCC1)C(=O)C[C@@H](CC(N)=O)C(=O)C[C@@H](Cc1cccnc1)C(=O)N(C)CC(=O)N(C)C [compound 139, cPEG3aCO-Pen(3)-N(N(Me)2)-T-7MeW-K(NMeAc)-Pen(3)-AEF(SP6PEG12gEC20OH)-2Nal-THP-K(NMeAc)-N-3Pya-Sar-CON(Me)2] | < 50 | < 0.5
7 | CC(=O)N(C)CCCC[C@H](CC(=O)C1(NC(=O)[C@H](Cc2ccc3ccccc3c2)NC(=O)[C@H](Cc2ccc(OCCNC(=O)C[N+](C)(C)CCNC(=O)COCCOCCNC(=O)COCCOCCNC(=O)CC[C@H](NC(=O)CCCCCCCCCCCCCCCCC(=O)O)C(=O)O)cc2)NC(=O)[C@@H]2CCCCC(C)[C@H](NC(=O)CCOCCOCC[N+](C)(C)C)C(=O)N[C@@H](CC(=O)N(C)C)N[C@@H]([C@@H](C)O)C(=O)N[C@@H](Cc3c[nH]c4c(C)cccc34)C(=O)N[C@@H](CCCCN(C)C(C)=O)C(=O)N2)CCOCC1)C(=O)C[C@@H](CC(N)=O)C(=O)N[C@@H](Cc1cccnc1)C(=O)N(C)CC(=O)N(C)C (stereo partly drawn) [compound 154, cPEG3aCO-Pen(3)-N(N(Me)2)-T-7MeW-K(NMeAc)-Pen(3)-AEF(SP6PEG2PEG2gEC18OH)-2Nal-THP-K(NMeAc)-N-3Pya-Sar-CON(Me)2] | < 50 | < 0.5
8 | CC(=O)NCCCC[C@@H]1NC(=O)[C@H](Cc2c[nH]c3c(C)cccc23)NC(=O)[C@H]([C@@H](C)O)NC(=O)[C@H](CC(N)=O)NC(=O)[C@@H](NC(=O)[C@@H](CCCNC(=N)N)NC(=O)COCCOCCNC(=O)COCCOCCNC(=O)CC[C@H](NC(=O)CCCCCCCCCCCCCCCCC(=O)O)C(=O)O)C(C)(C)SSC(C)(C)[C@@H](C(=O)N[C@@H](Cc2ccc(OCCCCC[N+](C)(C)C)cc2)C(=O)N[C@@H](Cc2ccc3ccccc3c2)C(=O)NC2(C(=O)N[C@@H](CCC(=O)O)C(=O)N[C@@H](CC(N)=O)C(=O)N[C@@H](Cc3cccnc3)C(=O)N(C)CC(N)=O)CCOCC2)NC1=O [compound 83, HOC18gEPEG2PEG2CO-r-Pen(3)-N-T-7MeW-K(Ac)-Pen(3)-TMAPF-2Nal-THP-E-N-3Pya-Sar-CONH2] ({C18 diacid-γGlu-AEEA-AEEA}-[dR][Pen]NT[Trp(7-Me)]K(Ac)[Pen]Y(X1)[2Nal][Thp]EN[3Pal][Sar]-NH2; disulfide 2-7) | < 50 | < 0.5
